Test results from patent US20220017863A1, “SIRT2-ABLATED CHIMERIC T CELLS” (H. Lee Moffitt Cancer Center and Research Institute, Inc., priority 2019, published 2022).
“Also recorded” adds a separate entry of the source.

Columns and labels:
human CD3+ T cells = assay: Seahorse extracellular flux analysis of CD3-stimulated human CD3+ T cells from healthy donors; type: cell-based; settings: anti-CD3 plus inhibitor vs vehicle, 48 hr
Method: Human peripheral blood mononuclear cells (PBMC) were obtained from healthy donors by density gradient centrifugation using Ficoll-Paque™ PLUS Media (GE Healthcare). CD3^+ lymphocytes were negatively enriched using human Pan T cell isolation Kit™ (Miltenyi Biotec).
Extracellular acidification rates (ECAR) were measured using the Seahorse XF analyzer (Agilent). Glycolysis Stress Test (GST) and glycolytic rate assay (GRA) were performed according to kit manufacturer's instructions.
The day of the assay, 2×10^5 activated T cells were plated in Cell-Tak (Corning)-coated XF96 plates in XF media (XF RPMI Medium pH 7.4 containing 2 mM L-glutamine only for GST or supplemented with 10 mM glucose, 2 mM L-glutamine and 1 mM sodium pyruvate for GRA test, all from Agilent technologies) via centrifugation to ensure cell attachment. Cells were equilibrated for 1 hour in a non-CO2 incubator before starting the assay.
(§1) For GST, ECAR was measured under basal conditions and in response to 10 mM glucose, 1 μM oligomycin and 50 mM 2-DG successively to calculate basal glycolytic rate, glycolytic capacity (in response to oligomycin), and glycolytic reserve (glycolytic capacity−basal rate). For GRA, ECAR was measured under basal conditions and in response to 0.5 μM rotenone+0.5 μM antimycin A and 50 mM 2-DG successively to calculate basal glycolysis and compensatory glycolysis (in response to rotenone+antimycin A). Results were normalized to total protein quantified using Pierce™ BCA Protein Assay Kit (ThermoFisher Scientific).
Human peripheral blood mononuclear cells (PBMC) were obtained from healthy donors by density gradient centrifugation using Ficoll-Paque™ PLUS Media (GE Healthcare). CD3^+ lymphocytes were negatively enriched using human Pan T cell isolation Kit™ (Miltenyi Biotec). […].
Extracellular acidification rate (ECAR) and oxygen consumption rate (OCR) were measured using the Seahorse XF analyzer (Agilent technologies). Glycolysis Stress Test (GST), glycolytic rate assay (GRA) and mitochondrial stress test (MST) were purchased from Agilent technologies and performed according to the kit manufacturer's instructions. […]
For GST, ECAR and OCR were measured under basal conditions and in response to 10 mM glucose, 1 μM oligomycin and 50 mM 2-DG successively to calculate basal glycolytic rate, glycolytic capacity (in response to oligomycin), and glycolytic reserve (glycolytic capacity basal rate).
For GRA, ECAR and OCR were measured under basal conditions and in response to 0.5 μM roteone/antimycin A and 50 mM 2-DG successively to calculate basal glycolysis and compensatory glycolysis (in response to rotenone/antimycin A).

SIRT1 = target: T1, SIRT1 (Homo sapiens, UniProt Q96EB6); settings: at 10-fold higher levels than the SIRT2 IC50; cited from earlier work
T1 sequence (Q96EB6 1-747): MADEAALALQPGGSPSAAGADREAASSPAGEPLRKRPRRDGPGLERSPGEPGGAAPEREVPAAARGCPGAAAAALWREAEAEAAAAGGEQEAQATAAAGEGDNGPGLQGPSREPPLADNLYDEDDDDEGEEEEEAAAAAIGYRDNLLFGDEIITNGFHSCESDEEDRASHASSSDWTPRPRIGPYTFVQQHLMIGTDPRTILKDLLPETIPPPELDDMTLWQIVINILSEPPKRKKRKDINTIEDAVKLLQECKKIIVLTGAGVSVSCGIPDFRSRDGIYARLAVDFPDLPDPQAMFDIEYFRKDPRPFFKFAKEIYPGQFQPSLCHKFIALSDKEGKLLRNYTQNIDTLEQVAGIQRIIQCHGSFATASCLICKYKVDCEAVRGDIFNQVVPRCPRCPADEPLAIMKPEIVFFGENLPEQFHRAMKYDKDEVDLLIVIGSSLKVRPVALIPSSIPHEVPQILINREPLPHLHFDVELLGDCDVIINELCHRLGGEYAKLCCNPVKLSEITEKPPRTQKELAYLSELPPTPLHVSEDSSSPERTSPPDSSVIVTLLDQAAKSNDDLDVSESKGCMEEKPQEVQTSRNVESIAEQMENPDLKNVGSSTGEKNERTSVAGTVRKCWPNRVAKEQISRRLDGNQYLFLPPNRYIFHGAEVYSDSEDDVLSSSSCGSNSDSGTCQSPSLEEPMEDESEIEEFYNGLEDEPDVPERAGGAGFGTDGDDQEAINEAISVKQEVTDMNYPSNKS

human TILs = assay: Seahorse extracellular flux analysis of CD3-stimulated human TILs from NSCLC patients; type: cell-based; settings: anti-CD3 plus AGK2 vs vehicle, 48 hr
Method: Human tumor infiltrating lymphocytes (hTILs) samples isolated from tumor biopsies of patients with nonsmall cell lung cancer (NSCLC) were generously provided by Dr. Antonia lab (Moffitt Cancer Center). All human samples remained totally de-identified and no Institutional Review Board (IRB) approval was needed.
hTILs were maintained in RPMI 1640 Medium, supplemented with 10% human AB serum (Valley Biomedical, Inc.), 1 mM Hepes (Sigma-Aldrich), 1% P/S (Thomas Scientific Inc), 50 μg/ml Gentamicin (ThermoFisher Scientific), 50 μM […] (ThermoFisher Scientific) and 6000 U/ml of recombinant human IL-2 (Peprotech).
Extracellular acidification rates (ECAR) were measured using the Seahorse XF analyzer (Agilent). […]
as §1, with “Scientific). […]” for “Scientific).”

Structure (SMILES): N#C/C(=C/c1ccc(-c2cc(Cl)ccc2Cl)o1)C(=O)Nc1cccc2ncccc12 [AGK2]
- OxPhos (human CD3+ T cells): increased
- aerobic glycolysis (ECAR/PER) (human CD3+ T cells): increases; also recorded: augments
- effect on SIRT1 (SIRT1): minimally affects
- OxPhos (OCR) (human TILs; human TILs from 5 NSCLC patients): increased
- aerobic glycolysis (ECAR) (human TILs; human TILs from NSCLC patients, 5 patient samples): increases
